Results from patent publication US11299482B2, “Salt and crystal form of modified andrographolide compound and preparation method thereof” (HEILONGJIANG ZHENBAODAO PHARMACEUTICAL CO, LTD, priority 2017, dated 2022).
Each block holds one compound with its values, some of them ahead of it.

Columns and labels:
[1] = Solid stability test of Crystal Form A under high temperature and high humidity conditions; assay type: physicochemical
Protocol: The vial was sealed with aluminum-foil paper which was punched to generate some small holes to ensure that the sample could fully contact with the ambient air. The vial was placed in a chamber with a constant temperature and humidity of 40° C. and 75%. Samples were placed under the above conditions and tested on day 5 and day 10. The test results were compared with the initial test results as measured on day 0.

[2] = Solid physical stability test of Crystal Form A under different temperature, humidity and light conditions; assay type: physicochemical; settings: Day 10
Protocol: The vial was sealed with aluminum-foil paper which was punched to generate some small holes to ensure that the sample could fully contact with the ambient air. The 4 samples as prepared were placed under conditions of 25° C./92.5% relative humidity, 60° C., 40° C./75%, and light. The physical stability of the samples on day 10 was examined. […] On day 10, all samples were taken and returned to room temperature. The appearance change of the samples was observed, and the crystal form of the samples was examined by XRPD.

[3] = tested on: IL-6 release from mouse spleen cells; assay: LPS-induced release of IL-6 from mouse spleen cells (CBA); assay type: cell-based; settings: 24 hours, read-out: Inhibition rate, IL-6 (Th1)
Text: (§1) Evaluate the inhibitory effect of the compound on LPS-induced release of cytokines involved in the Th1 pathway such as TNF-α and IL-6 from mouse spleen cells by measuring the levels of the cytokines involved in the Th1 pathway such as TNF-α and IL-6 in the culture supernatant of mouse spleen cells. Cells: spleen cells isolated from the spleens of normal C57BL/6 mice 1) The mice were sacrificed under aseptic conditions, and the spleens were collected and ground in a filter having a pore size of 70 μm. The obtained cell suspension was collected. 6) The cells were added to a 96-well plate (100 μL/well, 1×10^5 cells/well); LPS was formulated with culture medium into a 4 μg/ml solution, and then the solution was added to the cell culture well at 50 μl per well. The compound was dissolved in DMSO to give a solution of 100 mM, and then the solution was diluted with DMSO to obtain 3 gradients, which were 30 mM, 10 mM, and 3 mM, respectively. For each gradient, 4 μl of the solution was added to 1 ml of culture medium to form a mixture with a concentration of 120 μM, 40 μM, or 12 μM, respectively. 50 μl of the mixture was added to a corresponding well to a final concentration of 30 μM, 10 μM, or 3 μM, respectively. […] Then, the supernatant was collected, and the levels of TNF-α and IL-6 therein were detected by CBA.

[4] = tested on: IFN-γ release from mouse spleen cells; assay: Release of IFN-γ from anti-CD3 stimulated mouse spleen cells (CBA); assay type: cell-based; settings: anti-CD3, 24 hours, read-out: Inhibition rate, IFN-γ (Th1)
Protocol: (§2) Evaluate the inhibitory effect of the compound on the release of cytokines involved in the Th1 pathway such as IFN-γ and IL-2 from mouse spleen cells by measuring the levels of cytokines involved in the Th1 pathway such as IFN-γ and IL-2 in the culture supernatant of mouse spleen cells. Cells: spleen cells isolated from the spleens of normal C57BL/6 mice The anti-mouse CD3 antibody diluted to 5 μg/mL with DPBS was added to a 96-well plate at 100 μL/well. The culture plate was allowed to stand at 4° C. overnight; 1) The mice were sacrificed under aseptic conditions, and the spleens were collected and ground in a filter having a pore size of 70 μm. The obtained cell suspension was collected. 2) The cells were added to the wells coated with the anti-mouse CD3 antibody at 50 μL/well, i.e. 1×10^5 cells/well; and meanwhile, the cells were added to un-coated wells in the same amount, as a negative control; The compound was dissolved in DMSO to give a solution of 100 mM, and then the solution was diluted with DMSO to obtain 3 gradients, which were 30 mM, 10 mM, and 3 mM, respectively. For each gradient, 4 μl of the solution was added to 1 ml of culture medium to form a mixture with a concentration of 120 μM, 40 μM, or 12 μM, respectively. […] Then, the supernatant was collected, and the levels of IFN-γ and IL-2 therein were detected by CBA.

[5] = tested on: IL-2 release from mouse spleen cells; assay: Release of IL-2 from anti-CD3 stimulated mouse spleen cells (CBA); assay type: cell-based; settings: anti-CD3, 24 hours, read-out: Inhibition rate, IL-2 (Th1)
Protocol: as §2

[6] = tested on: left unilateral pulmonary fibrosis; assay: SD rat model of left unilateral pulmonary fibrosis; assay type: in vivo
[7] = tested on: TNF-α release from mouse spleen cells; assay: LPS-induced release of TNF-α from mouse spleen cells (CBA); assay type: cell-based; settings: 24 hours, read-out: Inhibition rate, TNF-α (Th1)
Text: as §1

[8] = tested on: TGF-β release from mouse peritoneal macrophages; assay: Release of TGF-β from mouse peritoneal macrophages (ELISA); assay type: cell-based; settings: Peritoneal macrophage, 24 hours, read-out: Inhibition rate, fibrosis factor TGF-β
Protocol: Evaluate the inhibitory effect of the compound on the release of TGF-β from mouse peritoneal macrophages by measuring the level of TGF-β in the culture supernatant of mouse peritoneal macrophages. Cells: Macrophages collected by peritoneal lavage of normal Balb/c mice 7) The macrophages were added to a 48-well plate at 250 μL/well, i.e. 4×10^5 cells/well; 2) A stimulating solution containing TNFα and IL-13 both at a concentration of 80 ng/mL was prepared with serum-free medium, and added to the wells plated with cells at 125 μL/well. Three wells were left without the addition of the stimulating solution and used as a blank control; The compound was dissolved in DMSO to give a solution of 100 mM, and then the solution was diluted with DMSO to obtain 3 gradients, which were 30 mM, 10 mM, and 3 mM, respectively. For each gradient, 4 μl of the solution was added to 1 ml of culture medium to form a mixture with a concentration of 120 μM, 40 μM, or 12 μM, respectively. 125 μl of the mixture was added to a corresponding well to a final concentration of 30 μM, 10 μM, or 3 μM, respectively. Dexamethasone was added as a positive drug to a separate well containing cells at a final concentration of 100 nM. […] Then, the supernatant was collected, and the level of TGF-β therein was detected by ELISA.

[9] = tested on: IL-13 release from mouse spleen cells; assay: Release of IL-13 (Th2 pathway) from mouse spleen CD4+ T cells (CBA); assay type: cell-based; settings: Th2 induction, 72 hours, read-out: Inhibition rate, IL-13 (Th2)
Protocol: Evaluate the inhibitory effect of the compound on LPS-induced release of cytokines involved in the Th2 pathway such as IL-13 from mouse spleen cells by measuring the levels of cytokines involved in the Th2 pathway such as IL-13 in the culture supernatant of mouse spleen cells. Cells: CD4+ cells isolated and sorted from the spleens of normal C57BL/6 mice The anti-mouse CD3 antibody diluted to 5 μg/mL with DPBS was added to a 96-well plate at 100 μL/well. The culture plate was allowed to stand at 4° C. overnight; 6) CD4+ T cells were isolated by using the Mouse CD4+ T Cell Isolation Kit, and the isolated cells were adjusted to a concentration of […]; 8) The isolated CD4+ T cells were added to the wells coated with the anti-CD3 antibody at 50 μL/well, i.e. 1×10^5 cells/well; and meanwhile, the CD4+ T cells were added to un-coated wells in the same amount, as a negative control; The mouse anti-IFNγ antibody and anti-IL-12 antibody were simultaneously added to the culture medium both at a concentration of 40 μg/mL, and mouse IL-4 was added thereto at a concentration of 40 ng/mL. An induction solution was prepared and added to the wells that had been plated with cells and coated with anti-CD3 antibody at 50 μL/well. […] Then, the supernatant was collected, and the level of IL-13 therein was detected by CBA.

[10] = Study on polymorphism of the compound of Formula (II) (stirring in solvent, XRPD); assay type: physicochemical; settings: stirred at 40° C. for 2 days in the dark
Protocol: The compound of Formula (II) was dissolved in a corresponding solvent and stirred at 40° C. for 2 days in the dark. The solution was then centrifuged to obtain a precipitate which was dried and subjected to XRPD detection.

[11] = tested on: IL-6 release from THP-1 cells; assay: LPS-induced release of IL-6 from THP-1 cells (CBA); assay type: cell-based; settings: Homo sapiens, LPS-stimulated THP-1 cells, 24 hours, read-out: Inhibition rate @10 uM (IL-6)
Protocol: Evaluate the inhibitory effect of the compound on LPS-induced release of IL-6 from THP-1 cells by measuring the level of IL-6 in the cell culture supernatant.
Cell line: THP-1 cell line
4) THP-1 cells were diluted with culture medium to 5×10^5 cells/mL and the diluted cells were added to a 96-well plate (100 μl/well, […]);
1) The compound was dissolved in DMSO to give a solution of 30 mM, and then the solution was 3-fold diluted with DMSO into 4 gradients, which were 30 mM, 10 mM, 3 mM, and 1 mM, respectively. For each gradient, 4 μl of the solution was added to 1 ml of culture medium to form a mixture with a concentration of 120 uM, 40 uM, 12 uM, or 4 uM, respectively. Then, 50 ul of the mixture was added to a well containing cells to a final concentration of 30 uM, 10 uM, 3 uM, or 1 uM, respectively. Dexamethasone was added as a positive drug to a separate well containing cells at a final concentration of 100 nM.
1 mg/ml of a LPS solution was diluted to 800 ng/ml with culture medium, and the diluted solution was added to the cell culture well at 50 ul per well.
The cell culture plate was placed in a 37° C. incubator and incubated for 24 hours. Then, the supernatant was collected, and the level of IL-6 therein was detected by CBA.

[12] = 40° C. and 75% humidity, open, day 5
[13] = 40° C. and 75% humidity, open, day 10
[14] = 25° C./92.5% relative humidity (open)
[15] = 40° C./75% relative humidity (open)
[16] = stored at −20° C. in a confined space (control sample)

Appearance [1, 12]: Off-white powder
Crystal form [1, 12]: Crystal Form A
Purity (%) [1, 12]: 98.37%
Total impurities (%) [1, 12]: 1.61%
Appearance [1, 13]: Off-white powder
Crystal form [1, 13]: Crystal Form A
Purity (%) [1, 13]: 98.45%
Total impurities (%) [1, 13]: 1.55%
Appearance ([1]; day 0 (initial)): Off-white powder
Crystal form ([1]; day 0 (initial)): Crystal Form A
Purity (%) ([1]; day 0 (initial)): 98.51%
Total impurities (%) ([1]; day 0 (initial)): 1.49%
Characters [2, 14]: Off-white powder
Crystal form [2, 14]: Crystal Form A
Characters [2, 15]: Off-white powder
Crystal form [2, 15]: Crystal Form A
Characters ([2]; 60° C. (open)): Off-white powder
Crystal form ([2]; 60° C. (open)): Crystal Form A
Characters ([2]; light): Off-white powder
Crystal form ([2]; light): Crystal Form A
Characters [2, 16]: Off-white powder
Crystal form [2, 16]: Crystal Form A
SMILES: C=C1CCC2[C@]3(C)CO[C@@H](C4CCCC4)O[C@@H]3CC[C@@]2(C)[C@@H]1CCOC1CCN(C)CC1.O=C(O)CC(O)(CC(=O)O)C(=O)O (some centres unmarked) [Crystal Form A]

Crystal form ([10]; Ethanol): Crystal Form A
Crystal form ([10]; Methanol): Crystal Form A
SMILES: C=C1CCC2[C@]3(C)CO[C@@H](C4CCCC4)O[C@@H]3CC[C@@]2(C)[C@@H]1CCOC1CCN(C)CC1.O=C(O)CC(O)(CC(=O)O)C(=O)O (stereo in doubt) [compound of Formula (II)]
inhibition at 10 µM [3]: 48%
inhibition at 10 µM [4]: 85.3%
inhibition at 10 µM [5]: 78.2%
Inhibitory effect on IPF [6]: significant inhibitory effect
inhibition at 30 µM [7]: 40.3%
inhibition at 10 µM [8]: 51%
inhibition at 10 µM [9]: 99.9%

SMILES: C=C1CCC2[C@]3(C)CO[C@@H](C4CCCC4)O[C@@H]3CC[C@@]2(C)[C@@H]1CCOC1CCN(C)CC1 (some centres unmarked) [Compound h]
inhibition at 10 µM [11]: > 60%
